From patent US20210000778A1

Key:
[1] = tested on: 22RV1; experiment: In vitro killing of prostate cancer cell lines, CellTiter 96 cell survival; format: cell-based; conditions: Homo sapiens, 60 hrs in RPMI with 10% FBS
Protocol: (§1) Cell survival was assayed with CellTiter 96® Aqueous One Solution Cell Proliferation Assay (Promega). EC50 values were calculated.

[2] = tested on: DU 145; experiment: as above; format: cell-based; conditions: Homo sapiens, 60 hrs in RPMI with 10% FBS
Protocol: as §1

[3] = tested on: LnCap; experiment: as above; format: cell-based; conditions: Homo sapiens, 60 hrs in RPMI with 10% FBS
Protocol: as §1

[4] = tested on: PC-3; experiment: as above; format: cell-based; conditions: Homo sapiens, 60 hrs in RPMI with 10% FBS
Protocol: as §1

[5] = tested on: RWPI-1; experiment: as above; format: cell-based; conditions: 60 hrs in RPMI with 10% FBS
Protocol: as §1

[6] = tested on: androgen-resistance prostate PC-3 cancer cells; experiment: PC-3 flank model of androgen-resistant prostate cancer; format: in vivo; conditions: 2.5 mg/kg or 10 mg/kg, 2-3 times per week for five weeks
[7] = tested on: Human H460 NSCLC cells; experiment: Oral efficacy in human non-small cell lung cancer xenografts; format: in vivo, CD1-Nu/Nu female mice; conditions: H460 xenograft; oral 100 mg/kg on day 8, 15, 22, 29; vs 5% dextrose or untreated
Protocol: Human H460 NSCLC cells were obtained from American Type Cell Culture (ATCC) (catalog no. HTB-177, Manassas, Va.). These cells tested negative for viral contamination using the Mouse Antibody Production (MAP) test, performed by Charles River Labs Molecular Division, upon the receipt of the tumor cells from ATCC. The tumor cells were maintained at 37° C. in a humidified 5% CO2 atmosphere in T225 tissue culture flasks containing 50 mL of Roswell Park Memorial Institute (RPMI)-1640 solution with 10% Fetal Bovine Serum (FBS) and 2 mM L-glutamine. Cells were split at a ratio of 1:10 every 2-3 days by trypsinization and resuspended in fresh medium in a new flask. Cells were harvested for experiments in the same way at 70-90% confluency.
CD1-Nu/Nu female mice, ˜4-6 weeks old were obtained from Charles River Laboratories. Mice were housed 5 to a cage in a micro-isolator room in the Department of Animal Laboratory Research of New York State University (SUNY) at Stony Brook. Light-dark cycles were 12 h each daily, with light from 7 a.m. to 7 p.m. […]
An acclimation period of 7 days was allowed between the arrival of the animal at the study site before tumor inoculation and experimentation. […] Tumor dimensions (length and width) were measured daily before, during and after treatment (using Vernier calipers) and the tumor volume was calculated using the prolate ellipsoid formula: (length× width^2)/2. […]

[8] = tested on: BxPC3 pancreatic cancer cells; experiment: Oral efficacy in human pancreatic cancer xenografts; format: in vivo, CD-1 nude mice; conditions: BxPC-3 xenograft; oral dose of 100 mg/week for 4 weeks; vs 5% dextrose or untreated
Protocol: An acclimation period of 7 days was allowed between the arrival of the animal at the study site before tumor inoculation and experimentation. Mice were inoculated subcutaneously (SC) in the right flank with 2×10^6 human H460 NSCLC or BxPC3 pancreatic cancer cells that were suspended in 0.1 mL of Dulbeco's Phosphate Buffered Salt (PBS) solution using a 1 cc syringe with a 27-5/8 gauge needle. Tumor dimensions (length and width) were measured daily before, during and after treatment (using Vernier calipers) and the tumor volume was calculated using the prolate ellipsoid formula: (length× width^2)/2. Treatment with test or control articles began 8 days post tumor cell implantation when the tumor was approximately 300 mm^3.
A similar study was conducted in CD-1 nude mice (n=9) inoculated with 2×10^6 BxPC-3 cells. The study was initiated when tumors reached an average size of 150 mm^3 (day 0) and CPI-613 was administered at an oral dose of 100 mg/week for 4 weeks. A comparator arm (n=9) was conducted with IP treatment at a weekly dose of 25 mg/kg.

[9] = Pardee et al., Clin Cancer Res. 2014; cited from earlier work

For `O=C(O)CCCCC(CCSCc1ccccc1)SCc1ccccc1` (centres unmarked), the EC50 [1] was 175 µM, the EC50 [2] was 99 µM and the EC50 [3] was 114 µM. For the same compound, the EC50 [4] was 202 µM, the EC50 [5] was 147 µM and the Toxicity [6] was “without toxicity”. The “Survival of the mice” value ([6]; vs saline control) was “increased survival”, the “Tumor growth (tumor volume over time)” value ([6]; vs saline control) was “significantly slower” and the Tumor growth [7] was “grew much more slowly”. The Tumor growth [8] was “especially pronounced” and the “half-life after IV dosing” value [9] was 1 to 2 h.
